Test results as given in PubChem BioAssay (NCI).
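Interpolation was linear, between the two tested concentrations surrounding the appropriate level; five concentrations were tested over 48 hours in 96-well plates. GI50 marks 50% less growth. TGI denotes the concentration required for complete inhibition of growth.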

Key:
Assay in all cases: NCI anticancer screen, dose series, 48 h
[1] = tested on: KM20L2 colon
[2] = tested on: DMS 273 small cell lung
[3] = tested on: LXFL 529 NSCLC
[4] = tested on: DLD-1 colon
[5] = tested on: MCF7 breast
[6] = tested on: PC-3 prostate
[7] = tested on: BT-549 breast
[8] = tested on: MDA-MB-435

With `CC1=C2C(O)C(C(C)CO)C(O)CC2(C)C(O)CC1` (centres undefined) the TGI [1] was > 100 µM, the TGI [2] was > 100 µM and the TGI [3] was > 100 µM. For the same compound, the TGI [4] was > 100 µM.
`CN1CCN(Cc2ccc(NC(=O)c3cncc(C#Cc4cnc(N)c5ccc(F)cc45)c3)cc2C(F)(F)F)CC1` showed a GI50 [5] of 1.27 µM, a TGI [5] of 5.43 µM and a GI50 [6] of 1.39 µM. For the same compound, the TGI [6] was 6.68 µM, the GI50 [7] was 4.38 µM and the TGI [7] was 8.86 µM. The GI50 [8] was 1.24 µM and the TGI [8] was 4.99 µM.
`O=[N+]([O-])c1ccc2[nH]cc(-c3c4ccsc4cc4[nH]c5ccc([N+](=O)[O-])cc5c34)c2c1` was tested, and the GI50 [5] was 0.606 µM, the TGI [5] was 4.75 µM and the GI50 [6] was 0.931 µM. The TGI [6] was 6.36 µM, the GI50 [7] was 1.49 µM and the TGI [7] was 6.36 µM. For the same compound, the GI50 [8] was 0.145 µM and the TGI [8] was 33.3 µM.
In the case of `O=c1ccn(C2OC(CO)C(O)C2O)c(=O)[nH]1` (centres undefined), the GI50 [5] is reported as > 1000 µM, the TGI [5] is reported as > 1000 µM and the GI50 [6] is reported as > 1000 µM. The TGI [6] was > 1000 µM, the TGI [7] was > 1000 µM and the GI50 [8] was > 1000 µM. The TGI [8] was > 1000 µM.
In the case of `COc1ccc2c(c1)C(=O)CC(N)C2` (centres undefined), the TGI [5] is reported as > 100 µM, the TGI [6] is reported as > 100 µM and the TGI [7] is reported as > 100 µM. The TGI [8] was > 100 µM.
For `CCCCNc1nc(NC(C)(C)C)nc(NC(C)(C)C)n1`, the GI50 [5] was 9.94 µM, the TGI [5] was > 100 µM and the GI50 [6] was 4.26 µM. The TGI [6] was > 100 µM, the GI50 [7] was 19.1 µM and the TGI [7] was > 100 µM. For the same compound, the GI50 [8] was 31.8 µM and the TGI [8] was > 100 µM.
Compound `COc1cc2nc(-c3ccc(C(F)(F)F)cc3)cc(OCCCN3CCOCC3)c2cc1OC` has a GI50 [5] of 1.55 µM, a TGI [5] of 11.7 µM and a GI50 [6] of 2.19 µM. It also gave a TGI [6] of 16.5 µM, a GI50 [7] of 5 µM and a TGI [7] of 20.9 µM. For the same compound, the GI50 [8] was 1.2 µM and the TGI [8] was 3.57 µM.
`COc1ccc(/C=C/c2cc(OC)c(OC)c(OC)c2)cc1NC(=O)/C=C/c1ccc(F)cc1` was tested, and the GI50 [5] was 3.34 µM, the TGI [5] was > 100 µM and the GI50 [6] was 1.98 µM. The TGI [6] was > 100 µM, the GI50 [7] was 4.49 µM and the TGI [7] was > 100 µM.
For `Nc1nc(-c2cccc([N+](=O)[O-])c2)c(Br)c(=O)[nH]1`, the TGI [5] was > 65.3 µM, the TGI [6] was > 100 µM and the TGI [7] was > 63 µM. For the same compound, the TGI [8] was > 100 µM.
For `Cc1c(CCCl)c(=O)n2c([nH]c3ccccc32)c1C#N`, the TGI [5] was > 10 µM, the TGI [6] was 2.82 µM and the TGI [7] was 3.63 µM. The TGI [8] was 4.05 µM.
For `S=C(Nc1ccc(-c2nc3ccccc3[nH]2)cc1)NC1CCCCC1`, the GI50 [5] was 19.7 µM, the TGI [5] was > 100 µM and the GI50 [6] was 36.6 µM. The GI50 [7] was 21.7 µM, the TGI [7] was 60.3 µM and the GI50 [8] was 16.4 µM. It also gave a TGI [8] of 43.3 µM.
Compound `C=CCn1c(C)nc2cc(Nc3nc(Nc4ccc5nc(C)n(CC=C)c5c4)c4ccccc4n3)ccc21` has a GI50 [5] of 0.224 µM and a TGI [5] of 0.554 µM.
`CN(C)CCNc1nc2ccccc2c2c1c1c(n2Cc2ccccc2)-c2ccccc2C1=O` was tested, and the GI50 [5] was 15.1 µM, the TGI [5] was 33.6 µM and the GI50 [7] was 16.7 µM. The TGI [7] was 32.9 µM, the GI50 [8] was 16.8 µM and the TGI [8] was 35.5 µM.
`CCOC(=O)[C@@H](C)C[C@H](Cc1ccccc1)NC(=O)c1csc([C@@H](C[C@H](C(C)C)N(C)C(=O)[C@@H](NC(=O)[C@H]2C[C@H](O[Si](C)(C)C(C)(C)C)CCN2C)C(C)C)OC(C)=O)n1` was tested, and the GI50 [5] was 0.132 µM, the TGI [5] was > 8.33 µM and the GI50 [6] was 0.22 µM. For the same compound, the TGI [6] was > 8.33 µM, the GI50 [7] was 0.285 µM and the TGI [7] was 2.53 µM. For the same compound, the GI50 [8] was 0.0389 µM and the TGI [8] was 0.165 µM.
With `COc1cc(OC2OC(C)C(O)C(O)C2O)cc2oc(-c3ccc(O)cc3)c(CC=C(C)C)c(=O)c12` (centres undefined) the GI50 [5] was 13.9 µM, the TGI [5] was 48.2 µM and the GI50 [6] was 8.32 µM. For the same compound, the TGI [6] was 28.4 µM, the GI50 [7] was 31.2 µM and the TGI [7] was > 100 µM. For the same compound, the GI50 [8] was 20.5 µM and the TGI [8] was 59.9 µM.
With `Cc1ccc(C(=O)c2oc3ccc4c(C)cc(=O)oc4c3c2C)cc1` the GI50 [5] was 5.95 µM, the TGI [5] was > 100 µM and the GI50 [6] was 5.64 µM. The TGI [6] was > 100 µM, the GI50 [7] was 45.6 µM and the TGI [7] was > 100 µM. The GI50 [8] was 5.95 µM and the TGI [8] was > 100 µM.
`Clc1nc(Oc2ccccc2)nc(-c2cn(-c3ccccc3)c3ccccc23)n1` was tested, and the GI50 [5] was 11.6 µM, the TGI [5] was 32.5 µM and the GI50 [6] was 5.03 µM. The TGI [6] was 19.3 µM, the GI50 [7] was 17 µM and the TGI [7] was 35.6 µM. It also gave a GI50 [8] of 6.49 µM and a TGI [8] of 23.1 µM.
`COc1cc(-c2nc3ccc(C)cc3[nH]2)ccc1OCC(=O)N=Nc1c(O)[nH]c2ccccc12` gave a GI50 [7] of 2.26 µM, a TGI [7] of 6.56 µM and a GI50 [8] of 1.63 µM. It also gave a TGI [8] of 3 µM.
For `CC(=O)CC1CCC(=O)CCC(=O)OC(CC(C)=O)CCC(=O)CCC(=O)O1` (centres undefined), the TGI [5] was > 100 µM, the TGI [6] was > 100 µM and the TGI [7] was > 100 µM. For the same compound, the TGI [8] was > 100 µM.
In the case of `O=C(Oc1ccc(O)c2c(=O)n3c(cc12)[nH]c1ccccc13)c1ccccc1`, the GI50 [5] is reported as 74.1 µM, the TGI [5] is reported as > 100 µM and the GI50 [6] is reported as 18.2 µM. The TGI [6] was 56 µM, the GI50 [7] was 6.35 µM and the TGI [7] was 32.2 µM. For the same compound, the GI50 [8] was 28.5 µM and the TGI [8] was 89.9 µM.
